The experiment deals with T1, human PCaR (Homo sapiens, UniProt P41180).
T1 construct: expressed in transfected cells; host or cells: CCL39 fibroblasts (stably transfected)
T1 sequence (P41180 20-1078): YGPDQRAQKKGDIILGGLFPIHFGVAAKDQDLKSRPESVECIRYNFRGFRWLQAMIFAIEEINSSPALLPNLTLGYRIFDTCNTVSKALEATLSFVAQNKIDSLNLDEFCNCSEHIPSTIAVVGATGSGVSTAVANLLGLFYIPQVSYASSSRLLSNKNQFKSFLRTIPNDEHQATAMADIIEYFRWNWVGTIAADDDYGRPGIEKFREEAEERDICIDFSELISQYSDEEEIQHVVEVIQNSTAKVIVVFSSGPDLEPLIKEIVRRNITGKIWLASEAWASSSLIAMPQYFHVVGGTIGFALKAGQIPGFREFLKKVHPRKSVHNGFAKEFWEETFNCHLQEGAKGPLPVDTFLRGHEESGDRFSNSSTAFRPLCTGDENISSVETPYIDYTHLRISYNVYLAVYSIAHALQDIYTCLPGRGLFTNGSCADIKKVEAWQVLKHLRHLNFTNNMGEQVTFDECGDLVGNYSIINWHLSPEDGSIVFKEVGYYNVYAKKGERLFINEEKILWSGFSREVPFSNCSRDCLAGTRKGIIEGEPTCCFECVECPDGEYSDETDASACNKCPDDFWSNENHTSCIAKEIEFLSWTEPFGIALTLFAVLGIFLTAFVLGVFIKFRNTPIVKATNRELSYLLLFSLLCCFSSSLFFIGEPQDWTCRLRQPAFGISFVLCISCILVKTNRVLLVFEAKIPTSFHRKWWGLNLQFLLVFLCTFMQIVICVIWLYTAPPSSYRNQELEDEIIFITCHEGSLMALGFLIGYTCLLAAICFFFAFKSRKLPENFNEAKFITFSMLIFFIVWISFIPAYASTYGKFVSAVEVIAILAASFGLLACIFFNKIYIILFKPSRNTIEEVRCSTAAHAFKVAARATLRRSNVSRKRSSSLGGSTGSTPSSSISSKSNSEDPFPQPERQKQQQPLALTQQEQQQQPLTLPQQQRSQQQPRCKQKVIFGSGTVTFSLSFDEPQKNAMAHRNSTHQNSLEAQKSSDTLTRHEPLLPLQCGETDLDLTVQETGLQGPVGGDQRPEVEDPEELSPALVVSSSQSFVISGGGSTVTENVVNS
Nature of the experiment: Assay for intracellular free calcium (inhibition of calcium transients stimulated by extracellular calcium). The format is cell-based. The following applies: CCL39 fibroblasts stably transfected with human PCaR; "based on the above described assay". The procedure:
An alternative method to determine antagonism at the PCaR consists in measuring the inhibition of intracellular calcium transients stimulated by extracellular calcium. CCL39 fibroblasts stably transfected with human PCaR are seeded at 40′000 cells/well into 96-well Viewplates and incubated for 24 hours. Medium is then removed and replaced with fresh medium containing 2 μM Fluo-3 AM (Molecular Probes, Leiden, The Netherlands), In routine experiments, cells are incubated at 37° C., 5% CO2 for 1 h. Afterwards, plates are washed twice with mHBS and wells are refilled with 100 μl mHBS containing the test compounds. Incubation is continued at room temperature for 15 minutes. To record changes of intracellular free calcium, plates are transferred to fluorescence-imaging plate reader (Molecular Devices, Sunnyvale, Calif., USA). A baseline consisting in 5 measurements of 0.4 seconds each (laser excitation 488 nm) is recorded. Cells are then stimulated with calcium (2.5 mM final), and fluorescence changes recorded over a period of 3 minutes.

From US20100227889A1, “Benzimidazole Derivatives” (priority 2006, published 2010) come the findings set out here.

What is called IC50 is the concentration that gives 50% inhibition.

As to `COCCn1c(-c2ccc(C(C)C)cc2)nc2c(C(F)(F)F)c(Cc3cccnc3[S+](C)[O-])cc(OC)c21` (stereo not shown) [Example 3, 2-(4-Isopropyl-phenyl)-5-(2-methanesulfinyl-pyridin-3-ylmethyl)-7-methoxy-1-(2-methoxy-ethyl)-4-trifluoromethyl-1H-benzoimidazole], the IC50 amounted to 2.6 nM.
To `COCCn1c(-c2ccc(C(C)C)cc2)nc2c(C(F)(F)F)c(Cc3cccnc3OC(C)C)cc(OC)c21` [Example 8, 5-(2-Isopropoxy-pyridin-3-ylmethyl)-2-(4-Isopropyl-phenyl)-7-methoxy-1-(2-methoxy-ethyl)-4-trifluoromethyl-1H-benzoimidazole] belongs 3.2 nM.
For `C#CCOc1ncccc1Cc1cc(OC)c2c(nc(-c3ccc(C(C)C)cc3)n2CCOC)c1C(F)(F)F` [Example 9, 2-(4-Isopropyl-phenyl)-7-methoxy-1-(2-methoxy-ethyl)-5-(2-prop-2-ynyloxy-pyridin-3-ylmethyl)-4-trifluoromethyl-1H-benzoimidazole] the value was 1.8 nM; for `COCCn1c(-c2ccc(C(C)C)cc2)nc2c(Br)c(Cc3cccnc3SC)cc(OC)c21` [Example 1, 4-Bromo-2-(4-isopropyl-phenyl)-7-methoxy-1-(2-methoxy-ethyl)-5-(2-methylsulfanyl-pyridin-3-ylmethyl)-1H-benzoimidazole], 3.4 nM.
